Data taken from patent publication US20110091587A1, “PHASE II DETOXIFICATION AND ANTIOXIDANT ACTIVITY” (JOSLIN DIABETES CENTER, INC., priority 2007, published 2011).

System: GCS-1::GFP
Assay: GCS-1::GFP reporter expression in the intestine of transgenic worms
Type: in vivo, C. elegans
Excerpt: A nucleic acid encoding the GCS-1 promoter (as described in An and Blackwell, 2003, Genes & Dev., 17, 1882-1893) was fused with a sequence encoding green fluorescent protein (GFP) to prepare a reporter construct (gcs-1::GFP) using standard molecular biology techniques. This fusion construct gene was transferred into C. elegans (An and Blackwell, 2003, Genes & Dev., 17, 1882-1893; Mello, et al., EMBO J. 1991. 10(12):3959-70), and the obtained transformed C. elegans were used in the experiment. Under normal, less oxidative stress conditions, the gcs-1::GFP construct is expressed in the pharynx area and ASI of C. elegans, where fluorescence emission of GFP can be measured.
Experiments were conducted to study the influence of the various extracts prepared in Example 1 on expression of the GCS-1::GFP reporter construct (described in Example 2) in C. elegans, following the method according to An and Blackwell, 2003, Genes & Dev., 17, 1882-1893.
Before each experiment, approximately 20 L4 stage worms carrying the GCS-1::GFP reporter construct transgene were picked to NGM plates (a type of agar media, see Brenner, Genetics, 1974 May; 77(1):71-94), containing OP50 bacteria (an E. coli strain, food for C. elegans), and were allowed to grow for 2 to 3 days. The worms were transferred together with a saline medium (M9) for treatment with the test materials to a microcentrifuge tube by flooding the NGM plate surface with the saline medium (M9). The microcentrifuge tube was then centrifuged, and a supernatant was removed. The same procedure was repeated again to wash the worms. This washing removed the bacteria which had been given as food.
Once the worms were washed, they were added for incubation in the specified test materials at the specified concentrations for the following amounts of time. Initially, incubation time was 30 minutes, and was later extended to include 60, 90, and 120 minutes. After treatment for said given times, the worms were washed in M9 at least twice, transferred back to an NGM plate containing bacteria, and allowed to recover for about 30 minutes. The worms were then mounted on slides, and scored for GFP expression levels under a microscope. GFP expression levels in the intestines of each worm were evaluated based on three scores; high, medium, and low expressions. A high score was given for worms with GFP expression through out the intestine. GFP expression midway up the intestine was scored medium. A low score was given to worms with very little or no GFP expression in their intestine. […]

[1] = comparison of GCS-1::GFP, Δ2 and Δ2mut3 worms

C[S+]([O-])CCCCN=C=S (stereo not shown) [sulforaphane]
regulation of GCS-1::GFP expression by SKN-1 [1]: not partially regulated by SKN-1
site of GCS-1::GFP expression [1]: about half of GCS-1::GFP expression was seen in the pharynx
effect on GCS-1::GFP expression (sulforaphane 1 mg/mL, after 30, 60 or 90 minutes of incubation): no effect was seen
incubation time at which effect was first seen (sulforaphane 1 mg/mL, longer incubation): 6 h
